Source: PubChem BioAssay AID2060899 (Molecular Pharmacology Branch, DTP, NCI, 2025)

System: 565726-208-R1-J5-PDC complex spheroids, growth inhibition
Assay: Anticancer human tumor 565726-208-R1-J5-PDC patient-derived pancreatic adenocarcinoma cell line growth inhibition [RAS]
Conditions: for viability, T/C: stronger effect = lower value
In short: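 Agents were tested in combination matrices in half-log decrements from a top concentration at or near clinical Cmax (10 microM if undetermined). Targets were multi-cell spheroids of tumour lines plus HUVEC and MSC stromal cells.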
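Further: spheroids exposed to compounds for seven days before readout.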
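Wherever viability, T/C is given: 100% = DMSO vehicle control viability.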

NC1c2ccccc2OC12CCN(c1cnc3c(N4CCCc5ncccc54)n[nH]c3n1)CC2 (stereo not drawn) + C=CC(=O)N1CCN(c2nc(OCC3CCCN3C)nc3c(F)c(-c4nc(N)cc(C)c4C(F)(F)F)c(Cl)cc23)C(C)C1
IC50 (curve of first compound, second compound 0.00316 µM): > 10000 nM | IC50 (curve of first compound, second compound 0.01 µM): > 10000 nM | IC50 (curve of first compound, second compound 0.0316 µM): > 10000 nM | IC50 (curve of first compound, second compound 0.1 µM): > 10000 nM | IC50 (curve of first compound, second compound 0.316 µM): > 10000 nM | IC50 (curve of first compound, second compound 1 µM): > 10000 nM | viability, T/C (second compound 0.00316 µM, first compound 0.0316 µM): 72.7% | viability, T/C (second compound 0.00316 µM, first compound 0.1 µM): 94.8% | viability, T/C (second compound 0.00316 µM, first compound 0.316 µM): 66.4% | viability, T/C (second compound 0.00316 µM, first compound 1 µM): 59.4% | viability, T/C (second compound 0.00316 µM, first compound 3.16 µM): 75.9% | viability, T/C (second compound 0.00316 µM, first compound 10 µM): 106% | viability, T/C (second compound 0.01 µM, first compound 0.0316 µM): 83.5% | viability, T/C (second compound 0.01 µM, first compound 0.1 µM): 121% | viability, T/C (second compound 0.01 µM, first compound 0.316 µM): 70.8% | viability, T/C (second compound 0.01 µM, first compound 1 µM): 59.3% | viability, T/C (second compound 0.01 µM, first compound 3.16 µM): 79.5% | viability, T/C (second compound 0.01 µM, first compound 10 µM): 102% | viability, T/C (second compound 0.0316 µM, first compound 0.0316 µM): 122% | viability, T/C (second compound 0.0316 µM, first compound 0.1 µM): 135% | viability, T/C (second compound 0.0316 µM, first compound 0.316 µM): 61.5% | viability, T/C (second compound 0.0316 µM, first compound 1 µM): 70.8% | viability, T/C (second compound 0.0316 µM, first compound 3.16 µM): 85% | viability, T/C (second compound 0.0316 µM, first compound 10 µM): 92.4% | viability, T/C (second compound 0.1 µM, first compound 0.0316 µM): 136% | viability, T/C (second compound 0.1 µM, first compound 0.1 µM): 131% | viability, T/C (second compound 0.1 µM, first compound 0.316 µM): 88.6% | viability, T/C (second compound 0.1 µM, first compound 1 µM): 56.3% | viability, T/C (second compound 0.1 µM, first compound 3.16 µM): 55% | viability, T/C (second compound 0.1 µM, first compound 10 µM): 93.7% | viability, T/C (second compound 0.316 µM, first compound 0.0316 µM): 108% | viability, T/C (second compound 0.316 µM, first compound 0.1 µM): 134% | viability, T/C (second compound 0.316 µM, first compound 0.316 µM): 59.7% | viability, T/C (second compound 0.316 µM, first compound 1 µM): 64.7% | viability, T/C (second compound 0.316 µM, first compound 3.16 µM): 58.6% | viability, T/C (second compound 0.316 µM, first compound 10 µM): 104% | viability, T/C (second compound 1 µM, first compound 0.0316 µM): 99.5% | viability, T/C (second compound 1 µM, first compound 0.1 µM): 109% | viability, T/C (second compound 1 µM, first compound 0.316 µM): 69.3% | viability, T/C (second compound 1 µM, first compound 1 µM): 61.8% | viability, T/C (second compound 1 µM, first compound 3.16 µM): 71.4% | viability, T/C (second compound 1 µM, first compound 10 µM): 106%

CCN1CCN(Cc2ccc(Nc3ncc(F)c(-c4cc(F)c5nc(C)n(C(C)C)c5c4)n3)nc2)CC1
viability, T/C (compound 0.00316 µM): 96.8% [middle of 4 runs] | viability, T/C (compound 0.0316 µM): 81.5% [middle of 4 runs] | viability, T/C (compound 0.1 µM): 77.8% [middle of 4 runs] | IC50 (curve of compound): > 1000 nM

CC(C)n1nc(-c2ccc3oc(N)nc3c2)c2c(N)ncnc21 + CCn1c(-c2cccnc2C(C)OC)c2c3cc(ccc31)N1CCOC(CC(NC(=O)C(C(C)C)N(C)C(=O)C3(F)CCN(C(=O)C#CC(C)(C)N(C)C)CC3)C(=O)N3CCCC(N3)C(=O)OCC(C)(C)C2)C1
IC50 (curve of first compound, second compound 0.000949 µM): 19.2 nM | IC50 (curve of first compound, second compound 0.003 µM): 26.8 nM | IC50 (curve of first compound, second compound 0.00949 µM): 24.5 nM | IC50 (curve of first compound, second compound 0.03 µM): 23.1 nM | IC50 (curve of first compound, second compound 0.0949 µM): 18.8 nM | IC50 (curve of first compound, second compound 0.3 µM): 13 nM | viability, T/C (second compound 0.000949 µM, first compound 0.000316 µM): 95.6% | viability, T/C (second compound 0.000949 µM, first compound 0.001 µM): 91.2% | viability, T/C (second compound 0.000949 µM, first compound 0.00316 µM): 91.5% | viability, T/C (second compound 0.000949 µM, first compound 0.01 µM): 59.8% | viability, T/C (second compound 0.000949 µM, first compound 0.0316 µM): 43.4% | viability, T/C (second compound 0.000949 µM, first compound 0.1 µM): 27.5% | viability, T/C (second compound 0.003 µM, first compound 0.000316 µM): 101% | viability, T/C (second compound 0.003 µM, first compound 0.001 µM): 90.5% | viability, T/C (second compound 0.003 µM, first compound 0.00316 µM): 85.2% | viability, T/C (second compound 0.003 µM, first compound 0.01 µM): 67.1% | viability, T/C (second compound 0.003 µM, first compound 0.0316 µM): 46.5% | viability, T/C (second compound 0.003 µM, first compound 0.1 µM): 28.1% | viability, T/C (second compound 0.00949 µM, first compound 0.000316 µM): 103% | viability, T/C (second compound 0.00949 µM, first compound 0.001 µM): 93.9% | viability, T/C (second compound 0.00949 µM, first compound 0.00316 µM): 86.8% | viability, T/C (second compound 0.00949 µM, first compound 0.01 µM): 69.8% | viability, T/C (second compound 0.00949 µM, first compound 0.0316 µM): 43.2% | viability, T/C (second compound 0.00949 µM, first compound 0.1 µM): 26.9% | viability, T/C (second compound 0.03 µM, first compound 0.000316 µM): 83.2% | viability, T/C (second compound 0.03 µM, first compound 0.001 µM): 91% | viability, T/C (second compound 0.03 µM, first compound 0.00316 µM): 79% | viability, T/C (second compound 0.03 µM, first compound 0.01 µM): 68.8% | viability, T/C (second compound 0.03 µM, first compound 0.0316 µM): 43% | viability, T/C (second compound 0.03 µM, first compound 0.1 µM): 26.7% | viability, T/C (second compound 0.0949 µM, first compound 0.000316 µM): 93% | viability, T/C (second compound 0.0949 µM, first compound 0.001 µM): 92.1% | viability, T/C (second compound 0.0949 µM, first compound 0.00316 µM): 82.5% | viability, T/C (second compound 0.0949 µM, first compound 0.01 µM): 62.1% | viability, T/C (second compound 0.0949 µM, first compound 0.0316 µM): 40.2% | viability, T/C (second compound 0.0949 µM, first compound 0.1 µM): 25.1% | viability, T/C (second compound 0.3 µM, first compound 0.000316 µM): 89.3% | viability, T/C (second compound 0.3 µM, first compound 0.001 µM): 85.1% | viability, T/C (second compound 0.3 µM, first compound 0.00316 µM): 75.2% | viability, T/C (second compound 0.3 µM, first compound 0.01 µM): 54.8% | viability, T/C (second compound 0.3 µM, first compound 0.0316 µM): 33.8% | viability, T/C (second compound 0.3 µM, first compound 0.1 µM): 24%
